US20180185347A1, “TETRAHYDROCYCLOPENTA[B]INDOLE COMPOUNDS AND PHOSPHODIESTERASE INHIBITORS FOR THE TREATMENT OF THE SIGNS AND SYMPTOMS OF BHP” (Transition Therapeutics (Ireland 2) Limited, priority 2016, published 2018)
Read-outs that look alike come from different tables or passages of the source.

Experiments:
LnCAP cells = test: LnCAP gene expression; format: cell-based; details: Homo sapiens
orchidectomized rats = test: Testosterone induced prostate / seminal vesicle growth in delayed ORX rat model; format: in vivo
Description: Orchidectomized (ORX) and sham-operated Wistar male rats were used (orchidectomized at 8 weeks of age and allowed to waste for 4 weeks). […] Rats were randomized and placed into treatment groups (n=6) based on body weight. Route of administration for all groups except testosterone enanthate (TE was given sub-cutaneously) was oral. At the end of 2 weeks of daily rats were euthanized, weighed & tissue harvested. Levator ani, prostates, and seminal vesicles were collected from each animal. Results are plotted as means±SE.

[1] = ORX + TE, 1 mg/kg/d (control group itself)

| SMILES | EC50 (LnCAP cells; read-out: LnCAP Gene Expression EC50 (nM) AR) | EC50 (LnCAP cells; read-out: LnCAP Gene Expression EC50 (nM) CLUSTERIN) | EC50 (LnCAP cells; read-out: LnCAP Gene Expression EC50 (nM) PSA) | prostate weights, Abs(Dif)-LSD vs ORX + TE control (orchidectomized rats; [1]) | seminal vesicle wet weights, Abs(Dif)-LSD vs ORX + TE control (orchidectomized rats; [1]) | prostate weight and seminal vesical weight (orchidectomized rats; ORX rat, Testosterone 1 mg/k/d alone for 2 weeks) |
| --- | --- | --- | --- | --- | --- | --- |
| C[C@]1(O)CC[C@H]2[C@@H]3CCC4=CC(=O)CCC4=C3C=C[C@@]21C [R1881] | 0.035 nM | 0.37 nM | 0.034 nM | – | – | – |
| CCCCCCC(=O)O[C@H]1CC[C@H]2[C@@H]3CCC4=CC(=O)CC[C@]4(C)[C@H]3CC[C@]12C [TE, Testosterone Enanthate, reference compound] | – | – | – | −0.15 | −0.52 | increase in prostate weight and seminal vesical weight |
